# Earlier results, collected in patent US9546401B2, “Assays and methods for selecting a treatment regimen for a subject with depression” (The General Hospital Corporation, priority 2011, dated 2017).
# Read-outs that look alike come from different tables or passages of the source.
# Tests used:
# depression = conditions: parenteral and certain oral forms; cited from earlier work
# [1] = system: adults with major depression; conditions: cited from earlier work
# [2] = system: adults with MDD and partial or nonresponse to an SSRI; conditions: cited from earlier work
compound,measurement,setting,value
"C[S+](CC[C@H](N)C(=O)O)C[C@H]1O[C@@H](n2cnc3c(N)ncnc32)[C@H](O)[C@@H]1O (stereo partly shown) [SAM, S-adenosyl methionine]",antidepressant efficacy,depression,antidepressant efficacy greater than placebo and comparable to that of tricyclic antidepressants
CNCCC(Oc1ccc(C(F)(F)F)cc1)c1ccccc1 (stereo not shown) [fluoxetine],rate of non-response,[1]; individuals with low or deficient serum folate,35%
same,rate of non-response,[1]; serum folate levels in the normal range,20%
"Nc1nc2c(c(=O)[nH]1)N(C=O)C(CNc1ccc(C(=O)N[C@@H](CCC(=O)O)C(=O)O)cc1)CN2 (stereo partly shown) [folinic acid, Folinic acid]",Folate levels after treatment,"[2]; 15-30 mg/day added to SSRIs, 8 weeks, baseline 28+/−19 ng/mL",301 ± 203 ng/mL
same,HAM-D-17 score after treatment,"[2]; 16 completers, baseline 19.1+/−3.9",12.8+/−7.0
same,remission (HAM-D-17 no greater than 7),[2]; ITT sample,18%
same,remission (HAM-D-17 no greater than 7),[2]; completers,19%
same,response (at least 50% reduction in HAM-D-17),[2]; completers,31%
same,efficacy as an adjunct in SSRI-refractory depressed individuals with normal folate levels,[2]; in vivo,only modestly effective
same,response (at least 50% reduction in HAM-D-17),[2]; intent-to-treat (ITT) sample,27%
